Assay results taken from ChEMBL document CHEMBL4342418, “1,2,3-Triazole-containing hybrids as potential anticancer agents: Current developments, action mechanisms and structure-activity relationships” (Eur J Med Chem, 2019).

How the values were obtained:
Format in all cases: functional, cell-based
[1] = system: MCF7; experiment: cells; settings: Homo sapiens
Description: Antiproliferative activity against human MCF7 cells by MTT assay

[2] = system: Lu1; experiment: Antiproliferative activity against human Lu1 cells by MTT assay
[3] = system: HL-60; experiment: Antiproliferative activity against human HL60 cells by MTT assay
[4] = system: P388; experiment: Antiproliferative activity against mouse P388 cells by MTT assay
[5] = system: K562; experiment: Antiproliferative activity against human K562 cells assessed as reduction in cell viability after 24 hrs by MTT assay; settings: K562, 24 h
[6] = system: PC-3; experiment: Antiproliferative activity against human PC3 cells assessed as reduction in cell viability after 24 hrs by MTT assay; settings: PC-3, 24 h
[7] = system: A-431; experiment: Antiproliferative activity against human A431 cells assessed as reduction in cell viability after 24 hrs by MTT assay; settings: A-431, 24 h
[8] = system: MDA-MB-231; experiment: Antiproliferative activity against human MDA-MB-231 cells assessed as reduction in cell viability after 24 hrs by MTT assay; settings: MDA-MB-231, 24 h
[9] = system: COLO 205; experiment: Antiproliferative activity against human COLO205 cells assessed as reduction in cell viability after 24 hrs by MTT assay; settings: COLO 205, 24 h
[10] = system: A549; experiment: Antiproliferative activity against human A549 cells assessed as reduction in cell viability after 24 hrs by MTT assay; settings: A549, 24 h
[11] = system: HeLa; experiment: Antiproliferative activity against human HeLa cells by MTT assay

Row | Compound | IC50 [1] | IC50 [2] | IC50 [3] | IC50 [4] | IC50 [5] | IC50 [6] | IC50 [7] | IC50 [8] | IC50 [9] | IC50 [10] | IC50 [11]
1 | C[C@H]1[C@@H](OCc2cn(-c3cccc(C(=O)N4CCCCC4)c3)nn2)O[C@@H]2O[C@@]3(C)CC[C@H]4[C@H](C)CC[C@@H]1[C@@]24OO3 | 2.5 to 176 µM | 2.5 to 176 µM | 2.5 to 176 µM | 2.5 to 176 µM | – | – | – | – | – | – | –
2 | CC1CCCCN1C(=O)c1cccc(-n2cc(CO[C@H]3O[C@@H]4O[C@@]5(C)CC[C@H]6[C@H](C)CC[C@@H]([C@H]3C)[C@@]46OO5)nn2)c1 (stereo partly specified) | 2.5 to 176 µM | 2.5 to 176 µM | 2.5 to 176 µM | 2.5 to 176 µM | – | – | – | – | – | – | –
3 | C[C@H]1[C@@H](OCc2cn(-c3cccc(C(=O)N4CCOCC4)c3)nn2)O[C@@H]2O[C@@]3(C)CC[C@H]4[C@H](C)CC[C@@H]1[C@@]24OO3 | 2.5 to 176 µM | 2.5 to 176 µM | 2.5 to 176 µM | 2.5 to 176 µM | – | – | – | – | – | – | –
4 | C[C@H]1[C@@H](OCc2cn(-c3cccc(C(=O)N4CCN(c5ccccc5)CC4)c3)nn2)O[C@@H]2O[C@@]3(C)CC[C@H]4[C@H](C)CC[C@@H]1[C@@]24OO3 | 2.5 to 176 µM | 2.5 to 176 µM | 2.5 to 176 µM | 2.5 to 176 µM | – | – | – | – | – | – | –
5 | CC(=O)c1ccccc1-n1cc(CO[C@H]2O[C@@H]3O[C@@]4(C)CC[C@H]5[C@H](C)CC[C@@H]([C@H]2C)[C@@]35OO4)nn1 | – | – | – | – | 4.06 to 89.9 µM | 4.06 to 89.9 µM | 4.06 to 89.9 µM | 4.06 to 89.9 µM | 4.06 to 89.9 µM | 4.06 to 89.9 µM | –
6 | C[C@H]1[C@@H](OCc2cn(-c3ccc(C#N)cc3)nn2)O[C@@H]2O[C@@]3(C)CC[C@H]4[C@H](C)CC[C@@H]1[C@@]24OO3 | – | – | – | – | 4.06 to 89.9 µM | 4.06 to 89.9 µM | 4.06 to 89.9 µM | 4.06 to 89.9 µM | 4.06 to 89.9 µM | 4.06 to 89.9 µM | –
7 | CC(=O)c1ccc(-n2cc(CO[C@H]3O[C@@H]4O[C@@]5(C)CC[C@H]6[C@H](C)CC[C@@H]([C@H]3C)[C@@]46OO5)nn2)cc1 | – | – | – | – | 4.06 to 89.9 µM | 4.06 to 89.9 µM | 4.06 to 89.9 µM | 4.06 to 89.9 µM | 4.06 to 89.9 µM | 4.06 to 89.9 µM | –
8 | C[C@H]1[C@@H](OCc2cn(-c3ccc([N+](=O)[O-])cc3)nn2)O[C@@H]2O[C@@]3(C)O[C@]24[C@H]1CC[C@@H](C)[C@@H]4C[C@H]3O | – | – | – | – | 4.06 to 89.9 µM | 4.06 to 89.9 µM | 4.06 to 89.9 µM | 4.06 to 89.9 µM | 4.06 to 89.9 µM | 4.06 to 89.9 µM | –
9 | CC1CCN(C(=O)c2ccc(-n3cc(CO[C@H]4O[C@@H]5O[C@@]6(C)CC[C@H]7[C@H](C)CC[C@@H]([C@H]4C)[C@@]57OO6)nn3)cc2)CC1 | 2.5 to 4.7 µM | 2.5 to 4.7 µM | 2.5 to 4.7 µM | 2.5 to 4.7 µM | – | – | – | – | – | – | –
10 | CCN(CC)C(=O)c1ccc(-n2cc(CO[C@H]3O[C@@H]4O[C@@]5(C)CC[C@H]6[C@H](C)CC[C@@H]([C@H]3C)[C@@]46OO5)nn2)cc1 | 2.5 to 176 µM | 2.5 to 176 µM | 2.5 to 176 µM | 2.5 to 176 µM | – | – | – | – | – | – | –
11 | CC1CCN(C(=O)c2cccc(-n3cc(CO[C@H]4O[C@@H]5O[C@@]6(C)CC[C@H]7[C@H](C)CC[C@@H]([C@H]4C)[C@@]57OO6)nn3)c2)CC1 | 2.5 to 176 µM | 2.5 to 176 µM | 2.5 to 176 µM | 2.5 to 176 µM | – | – | – | – | – | – | –
12 | CCN1CCN(C(=O)c2ccc(-n3cc(CO[C@H]4O[C@@H]5O[C@@]6(C)CC[C@H]7[C@H](C)CC[C@@H]([C@H]4C)[C@@]57OO6)nn3)cc2)CC1 | 2.5 to 176 µM | 2.5 to 176 µM | 2.5 to 176 µM | 2.5 to 176 µM | – | – | – | – | – | – | –
13 | C[C@H]1[C@@H](OCc2cn(-c3ccc(C(=O)N4CCCC4)cc3)nn2)O[C@@H]2O[C@@]3(C)CC[C@H]4[C@H](C)CC[C@@H]1[C@@]24OO3 | 2.5 to 176 µM | 2.5 to 176 µM | 2.5 to 176 µM | 2.5 to 176 µM | – | – | – | – | – | – | –
14 | CC(=O)c1cccc(-n2cc(CO[C@H]3O[C@@H]4O[C@@]5(C)CC[C@H]6[C@H](C)CC[C@@H]([C@H]3C)[C@@]46OO5)nn2)c1 | – | – | – | – | 4.06 to 89.9 µM | 4.06 to 89.9 µM | 4.06 to 89.9 µM | 4.06 to 89.9 µM | 4.06 to 89.9 µM | 4.06 to 89.9 µM | –
15 | C[C@H]1[C@@H](OCc2cn(-c3cccc(C(=O)N4CCN(C)CC4)c3)nn2)O[C@@H]2O[C@@]3(C)CC[C@H]4[C@H](C)CC[C@@H]1[C@@]24OO3 | 2.5 to 176 µM | 2.5 to 176 µM | 2.5 to 176 µM | 2.5 to 176 µM | – | – | – | – | – | – | –
16 | C[C@H]1[C@@H](OCc2cn(-c3ccc(C(=O)N4CCOCC4)cc3)nn2)O[C@@H]2O[C@@]3(C)CC[C@H]4[C@H](C)CC[C@@H]1[C@@]24OO3 | 2.5 to 176 µM | 2.5 to 176 µM | 2.5 to 176 µM | 2.5 to 176 µM | – | – | – | – | – | – | –
17 | COc1ccc(-n2cc(Cn3c(=O)sc4cc(Br)ccc43)nn2)cc1 | 17.5 µM | – | – | – | – | – | – | – | – | – | 12.2 µM
